# Test results: patent US20230219906A1, “MACROCYCLIC-2-AMINO-3-FLUORO-BUT-3-ENAMIDES AS INHIBITORS OF MCL-1” (Janssen Pharmaceutica NV, priority 2020, published 2023)
# Where two headings read alike, the source gives them in different places.
# Experiments:
# [1] = system: MOLP-8 human multiple myeloma cell line; assay: Caspase-Glo 3/7 apoptosis induction assay in MOLP-8 cells; assay type: cell-based; conditions: caspase-3/7 activity, 2 hours at 37° C., averaged over all runs on all batches, read-out: MOLP8 AC50
# Excerpt: MCL-1 is a regulator of apoptosis and is highly over-expressed in tumor cells that escape cell death. The assay evaluates the cellular potency of small-molecule compounds targeting regulators of the apoptosis pathway, primarily MCL-1, Bfl-1, Bcl-2, and other proteins of the Bcl-2 family. Protein-protein inhibitors disrupting the interaction of anti-apoptotic regulators with BH3-domain proteins initiate apoptosis.
# The Caspase-Glo® 3/7 Assay is a luminescent assay that measures caspase-3 and −7 activities in purified enzyme preparations or cultures of adherent or suspension cells. The assay provides a proluminescent caspase-3/7 substrate, which contains the tetrapeptide sequence DEVD. This substrate is cleaved to release aminoluciferin, a substrate of luciferase used in the production of light. Addition of the single Caspase-Glo® 3/7 Reagent in an “add-mix-measure” format results in cell lysis, followed by caspase cleavage of the substrate and generation of a “glow-type” luminescent signal.
# This assay uses the MOLP-8 human multiple myeloma cell line, which is sensitive to MCL-1 inhibition.
# Cell cultures were maintained between 0.2 and 2.0×10^6 cells/mL. The cells were harvested by collection in 50 mL conical tubes. The cells were then pelleted at 500 g for 5 mins before removing supernatant and resuspension in fresh pre-warmed culture medium. The cells were counted and diluted as needed.
# The assay reagent was prepared by transferring the buffer solution to the substrate vial and mixing. The solution may be stored for up to 1 week at 4° C. with negligible loss of signal.
# Compounds were delivered in assay-ready plates (Proxiplate) and stored at −20° C. Assays always include 1 reference compound plate containing reference compounds. The plates were spotted with 40 nL of compounds (0.5% DMSO final in cells; serial dilution; […] highest conc. 1/3 dilution, 10 doses, duplicates). The compounds were used at room temperature and 4 μL of pre-warmed media was added to all wells except column 2 and 23. The negative control was prepared by adding 1% DMSO in media. The positive control was prepared by adding the appropriate positive control compound in final concentration of […] in media. The plate was prepared by adding 4 μL negative control to column 23, 4 μL positive control to column 2 and 4 μL cell suspension to all wells in the plate. The plate with cells was then incubated at 37° C. for 2 hours. The assay signal reagent is the Caspase-Glo solution described above, and 8 μL was added to all wells. The plates were then sealed and measured after 30 minutes.
# The activity of a test compound was calculated as percent change in apoptosis induction as follows:
# % Effect (AC50)=100−(sample-LC)/(HC-LC)*100
# % Control=(sample/HC)*100
# % Control min=(sample-LC)/(HC-LC)*100
# [2] = biological target: Myeloid Cell Leukemia 1(Mcl-1) (Homo sapiens, UniProt Q07820); assay: Terbium labeled Mcl-1 HTRF binding assay with Cy5-labeled BIM BH3 peptide; conditions: displacement of Cy5 Bim BH3 peptide; Ki=IC50/(1+[L]/Kd), [L]=8 nM, Kd=10 nM; 60 minutes at room temperature; read-out: Tb-MCL1 Ki
# Protocol: Terbium labeled Myeloid Cell Leukemia 1(Mcl-1) homogeneous time-resolved fluorescence (HTRF) binding assay utilizing the BIM BH3 peptide (H2N—(C/Cy5Mal) WIAQELRRIGDEFN-OH) as the binding partner for Mcl-1.
# This assay evaluated inhibition of the BH3 domain: Mcl-1 interaction by measuring the displacement of Cy5-labeled BIM BH3 peptide (H2N—(C/Cy5Mal) WIAQELRRIGDEFN-OH) in the HTRF assay format.
# The following assay and stock buffers were prepared for use in the assay: (a) Stock buffer: 10 mM Tris-HCl, pH=7.5+150 mM NaCl, filtered, sterilized, and stored at 4° C.; and (b) 1X assay buffer, where the following ingredients were added fresh to stock buffer: 2 mM dithiothreitol (DTT), 0.0025% Tween-20, 0.1 mg/mL bovine serum albumin (BSA). The 1X Tb-Mcl-1+Cy5 Bim peptide solution was prepared by diluting the protein stock solution using the 1X assay buffer (b) to 25 pM Tb-Mcl-1 and 8 nM Cy5 Bim peptide.
# Using the Acoustic ECHO, 100 nL of 100x test compound(s) were dispensed into individual wells of a white 384-well Perkin Elmer Proxiplate, for a final compound concentration of 1× and final DMSO concentration of 1%. Inhibitor control and neutral control (NC, 100 nL of 100% DMSO) were stamped into columns 23 and 24 of assay plate, respectively. Into each well of the plate was then dispensed 10 μL of the 1X Tb-Mcl-1+Cy5 Bim peptide solution. The plate was centrifuged with a cover plate at 1000 rpm for 1 minute, then incubated for 60 minutes at room temperature with plates covered.
# The TR-FRET signal was read on an BMG PHERAStar FSX MicroPlate Reader at room temperature using the HTRF optic module (HTRF: excitation: 337 nm, light source: laser, emission A: 665 nm, emission B: 620 nm, integration start: 60 μs, integration time: […]).
# The BMG PHERAStar FSX MicroPlate Reader was used to measure fluorescence intensity at two emission wavelengths—665 nm and 620 nm—and report relative fluorescence units (RFU) for both emissions, as well as a ratio of the emissions (665 nm/620 nm)*10,000. The RFU values were normalized to percent inhibition as follows:
# % inhibition=(((NC−IC)−(compound−IC))/(NC−IC))*100
# where IC (inhibitor control, low signal)= mean signal of 1X Tb-MCl-1+Cy5 Bim peptide+inhibitor control or 100% inhibition of Mcl-1; NC (neutral control, high signal)= mean signal 1X Tb-MCl-1+Cy5 Bim peptide with DMSO only or 0% inhibition An 11-point dose response curve was generated to determine IC50 values (using GenData) based on the following equation:
# Y=Bottom+(Top−Bottom)/(1+10∧((log IC50−X)*HillSlope))
# where Y=% inhibition in the presence of X inhibitor concentration; Top=100% inhibition derived from the IC (mean signal of Mcl-1+inhibitor control); Bottom=0% inhibition derived from the NC (mean signal of Mcl-1+DMSO); Hillslope=Hill coefficient; and IC50=concentration of compound with 50% inhibition in relation to top/neutral control (NC).
# In this assay [L]=8 nM and Kd=10 nM
# Myeloid Cell Leukemia 1(Mcl-1), sequence (Q07820 whole entry): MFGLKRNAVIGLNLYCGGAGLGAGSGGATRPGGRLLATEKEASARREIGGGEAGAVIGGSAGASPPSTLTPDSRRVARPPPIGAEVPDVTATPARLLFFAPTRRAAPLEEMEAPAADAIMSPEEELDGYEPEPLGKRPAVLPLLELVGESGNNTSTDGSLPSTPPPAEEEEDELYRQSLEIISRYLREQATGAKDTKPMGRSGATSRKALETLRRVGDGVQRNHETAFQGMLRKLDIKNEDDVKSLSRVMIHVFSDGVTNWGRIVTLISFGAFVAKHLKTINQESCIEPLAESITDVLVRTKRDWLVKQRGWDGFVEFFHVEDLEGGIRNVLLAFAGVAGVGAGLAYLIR
Structure (SMILES),"AC50 ([1]; Homo sapiens, MOLP-8, 2 h) [nM]",Ki [2] [nM],AC50 [1] [nM]
C[C@@H]1[C@@H](C)C/C=C(\F)[C@H](C(=O)N(C)CCN2CCOCC2)N2CCC[C@H]2CN2C[C@@]3(CCCc4cc(Cl)ccc43)COc3ccc(cc32)C(=O)NS1(=O)=O [Compound 1],80.1,0.027,–
C[C@@H]1[C@@H](C)C/C=C(\F)[C@H](C(=O)N(C)CCCN2CCOCC2)N2CCC[C@H]2CN2C[C@@]3(CCCc4cc(Cl)ccc43)COc3ccc(cc32)C(=O)NS1(=O)=O [Compound 5],111,0.026,–
"C[C@@H]1[C@@H](C)C/C=C(\F)[C@H](C(=O)N(C)C2CCCOC2)N2CCC[C@H]2CN2C[C@@]3(CCCc4cc(Cl)ccc43)COc3ccc(cc32)C(=O)NS1(=O)=O (single isomer, unassigned) [Compound 63]",–,0.041,57.4
C[C@@H]1[C@@H](C)C/C=C(\F)[C@H](C(=O)N2CCOC3(CCC3)C2)N2CCC[C@H]2CN2C[C@@]3(CCCc4cc(Cl)ccc43)COc3ccc(cc32)C(=O)NS1(=O)=O [Compound 26],153,0.115,–
COCCN(C)C(=O)[C@H]1/C(F)=C/C[C@H](C)[C@@H](C)S(=O)(=O)NC(=O)c2ccc3c(c2)N(C[C@@H]2CCCN21)C[C@@]1(CCCc2cc(Cl)ccc21)CO3 [Compound 21],78,0.075,–
C[C@@H]1[C@@H](C)C/C=C(\F)[C@H](C(=O)N2CCOCC2)N2CC[C@H]2CN2C[C@@]3(CCCc4cc(Cl)ccc43)COc3ccc(cc32)C(=O)NS1(=O)=O [Compound 7],346,0.223,–
COCCCN(CCOC)C(=O)[C@H]1/C(F)=C/C[C@H](C)[C@@H](C)S(=O)(=O)NC(=O)c2ccc3c(c2)N(C[C@@H]2CCCN21)C[C@@]1(CCCc2cc(Cl)ccc21)CO3 [Compound 70],41.9,0.028,–
C[C@@H]1[C@@H](C)C/C=C(\F)[C@H](C(=O)N(C)Cc2nnnn2C)N2CCC[C@H]2CN2C[C@@]3(CCCc4cc(Cl)ccc43)COc3ccc(cc32)C(=O)NS1(=O)=O [Compound 66],357,0.025,–
COCCCN(CCCOC)C(=O)[C@H]1/C(F)=C/C[C@H](C)[C@@H](C)S(=O)(=O)NC(=O)c2ccc3c(c2)N(C[C@@H]2CCCN21)C[C@@]1(CCCc2cc(Cl)ccc21)CO3 [Compound 37],49.5,0.061,–
"C[C@@H]1[C@@H](C)C/C=C(\F)[C@H](C(=O)N(C)C2CCOC2)N2CCC[C@H]2CN2C[C@@]3(CCCc4cc(Cl)ccc43)COc3ccc(cc32)C(=O)NS1(=O)=O (single isomer, unassigned) [Compound 69]",118,0.049,–
C[C@@H]1[C@@H](C)C/C=C(\F)[C@H](C(=O)N2CC3(CSC3)C2)N2CCC[C@H]2CN2C[C@@]3(CCCc4cc(Cl)ccc43)COc3ccc(cc32)C(=O)NS1(=O)=O [Compound 15],435,0.162,–
C[C@@H]1[C@@H](C)C/C=C(\F)[C@H](C(=O)N2CC(C(F)(F)F)C2)N2CCC[C@H]2CN2C[C@@]3(CCCc4cc(Cl)ccc43)COc3ccc(cc32)C(=O)NS1(=O)=O [Compound 36],399,0.325,–
CC1CN(CCN(C)C(=O)[C@H]2/C(F)=C/C[C@H](C)[C@@H](C)S(=O)(=O)NC(=O)c3ccc4c(c3)N(C[C@@H]3CCCN32)C[C@@]2(CCCc3cc(Cl)ccc32)CO4)CC(C)O1 (mixture of isomers) [Compound 45],–,0.113,113
COC1CN(C(=O)[C@H]2/C(F)=C/C[C@H](C)[C@@H](C)S(=O)(=O)NC(=O)c3ccc4c(c3)N(C[C@@H]3CCCN32)C[C@@]2(CCCc3cc(Cl)ccc32)CO4)C1 [Compound 25],154,0.072,–
C[C@@H]1[C@@H](C)C/C=C(\F)[C@H](C(=O)N2CCN(C)CC2)N2CCC[C@H]2CN2C[C@@]3(CCCc4cc(Cl)ccc43)COc3ccc(cc32)C(=O)NS1(=O)=O [Compound 13],297,0.059,–
CCS(=O)(=O)CCN(C)C(=O)[C@H]1/C(F)=C/C[C@H](C)[C@@H](C)S(=O)(=O)NC(=O)c2ccc3c(c2)N(C[C@@H]2CCCN21)C[C@@]1(CCCc2cc(Cl)ccc21)CO3 [Compound 82],557,0.025,–
C[C@@H]1[C@@H](C)C/C=C(\F)[C@H](C(=O)N2CCN(C)[C@@H](C)C2)N2CCC[C@H]2CN2C[C@@]3(CCCc4cc(Cl)ccc43)COc3ccc(cc32)C(=O)NS1(=O)=O [Compound 24],151,0.068,–
C[C@@H]1[C@@H](C)C/C=C(\F)[C@H](C(=O)N(C)CC2CCOCC2)N2CCC[C@H]2CN2C[C@@]3(CCCc4cc(Cl)ccc43)COc3ccc(cc32)C(=O)NS1(=O)=O [Compound 22],56.7,0.047,–
C[C@@H]1[C@@H](C)C/C=C(\F)[C@H](C(=O)N(C)C)N2CCC[C@H]2CN2C[C@@]3(CCCc4cc(Cl)ccc43)COc3ccc(cc32)C(=O)NS1(=O)=O [Compound 3],99.2,0.129,–
"C[C@@H]1[C@@H](C)C/C=C(\F)[C@H](C(=O)N(C)CC2CCOC2)N2CCC[C@H]2CN2C[C@@]3(CCCc4cc(Cl)ccc43)COc3ccc(cc32)C(=O)NS1(=O)=O (single isomer, unassigned) [Compound 57]",–,0.051,84.4
C[C@@H]1[C@@H](C)C/C=C(\F)[C@H](C(=O)N(C)CCOc2cncnc2)N2CCC[C@H]2CN2C[C@@]3(CCCc4cc(Cl)ccc43)COc3ccc(cc32)C(=O)NS1(=O)=O [Compound 41],99.1,0.034,–
C[C@@H]1[C@@H](C)C/C=C(\F)[C@H](C(=O)N2CCO[C@@H](C)C2)N2CCC[C@H]2CN2C[C@@]3(CCCc4cc(Cl)ccc43)COc3ccc(cc32)C(=O)NS1(=O)=O [Compound 6],84.3,–,–
